Where two headings read alike, the source gives them in different places.
Experiments:
Assay in all cases: biochemical
Design in all cases: DiscoveRx KINOMEscan active site-directed competition binding; percent of control kinase bound to immobilised ligand
[1] = target: T1, JAK3(JH1domain-catalytic) (Homo sapiens, UniProt P52333)
T1 construct: JH1domain-catalytic
T1 sequence (P52333 1-1124): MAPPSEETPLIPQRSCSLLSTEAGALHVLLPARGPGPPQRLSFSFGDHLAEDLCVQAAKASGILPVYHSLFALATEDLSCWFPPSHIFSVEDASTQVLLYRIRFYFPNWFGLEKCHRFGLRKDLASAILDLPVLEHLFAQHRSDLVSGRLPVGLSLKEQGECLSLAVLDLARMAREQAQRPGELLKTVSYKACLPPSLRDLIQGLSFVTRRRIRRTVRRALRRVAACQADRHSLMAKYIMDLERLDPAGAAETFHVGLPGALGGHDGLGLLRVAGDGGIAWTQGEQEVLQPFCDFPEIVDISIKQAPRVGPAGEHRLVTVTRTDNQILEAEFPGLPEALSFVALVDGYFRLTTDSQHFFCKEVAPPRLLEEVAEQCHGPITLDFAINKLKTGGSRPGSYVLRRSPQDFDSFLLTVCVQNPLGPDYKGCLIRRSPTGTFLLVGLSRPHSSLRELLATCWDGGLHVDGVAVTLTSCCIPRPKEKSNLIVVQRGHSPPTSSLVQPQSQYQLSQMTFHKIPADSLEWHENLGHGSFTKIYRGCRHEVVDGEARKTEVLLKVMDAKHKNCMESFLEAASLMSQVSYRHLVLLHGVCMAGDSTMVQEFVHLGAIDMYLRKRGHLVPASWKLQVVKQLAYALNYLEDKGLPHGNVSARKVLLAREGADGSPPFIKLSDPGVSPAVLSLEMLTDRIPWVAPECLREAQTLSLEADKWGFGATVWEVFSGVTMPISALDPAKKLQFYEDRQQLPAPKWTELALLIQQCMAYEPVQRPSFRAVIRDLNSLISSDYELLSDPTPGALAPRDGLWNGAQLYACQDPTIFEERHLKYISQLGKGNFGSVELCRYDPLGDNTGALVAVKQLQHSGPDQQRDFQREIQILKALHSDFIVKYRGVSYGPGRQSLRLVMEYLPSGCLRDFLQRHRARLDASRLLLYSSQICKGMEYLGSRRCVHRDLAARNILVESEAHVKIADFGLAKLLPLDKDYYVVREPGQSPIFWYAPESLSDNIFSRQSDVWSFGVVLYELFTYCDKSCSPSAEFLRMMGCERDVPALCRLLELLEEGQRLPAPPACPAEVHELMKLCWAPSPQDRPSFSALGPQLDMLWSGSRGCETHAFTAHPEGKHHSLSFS

PAK1 = PAK1 (Homo sapiens, UniProt Q13153)
CAMK1G = CAMK1G (Homo sapiens, UniProt Q96NX5)
NEK9 = target: T2, NEK9 (Homo sapiens, UniProt Q8TD19)
T2 sequence (Q8TD19 1-979): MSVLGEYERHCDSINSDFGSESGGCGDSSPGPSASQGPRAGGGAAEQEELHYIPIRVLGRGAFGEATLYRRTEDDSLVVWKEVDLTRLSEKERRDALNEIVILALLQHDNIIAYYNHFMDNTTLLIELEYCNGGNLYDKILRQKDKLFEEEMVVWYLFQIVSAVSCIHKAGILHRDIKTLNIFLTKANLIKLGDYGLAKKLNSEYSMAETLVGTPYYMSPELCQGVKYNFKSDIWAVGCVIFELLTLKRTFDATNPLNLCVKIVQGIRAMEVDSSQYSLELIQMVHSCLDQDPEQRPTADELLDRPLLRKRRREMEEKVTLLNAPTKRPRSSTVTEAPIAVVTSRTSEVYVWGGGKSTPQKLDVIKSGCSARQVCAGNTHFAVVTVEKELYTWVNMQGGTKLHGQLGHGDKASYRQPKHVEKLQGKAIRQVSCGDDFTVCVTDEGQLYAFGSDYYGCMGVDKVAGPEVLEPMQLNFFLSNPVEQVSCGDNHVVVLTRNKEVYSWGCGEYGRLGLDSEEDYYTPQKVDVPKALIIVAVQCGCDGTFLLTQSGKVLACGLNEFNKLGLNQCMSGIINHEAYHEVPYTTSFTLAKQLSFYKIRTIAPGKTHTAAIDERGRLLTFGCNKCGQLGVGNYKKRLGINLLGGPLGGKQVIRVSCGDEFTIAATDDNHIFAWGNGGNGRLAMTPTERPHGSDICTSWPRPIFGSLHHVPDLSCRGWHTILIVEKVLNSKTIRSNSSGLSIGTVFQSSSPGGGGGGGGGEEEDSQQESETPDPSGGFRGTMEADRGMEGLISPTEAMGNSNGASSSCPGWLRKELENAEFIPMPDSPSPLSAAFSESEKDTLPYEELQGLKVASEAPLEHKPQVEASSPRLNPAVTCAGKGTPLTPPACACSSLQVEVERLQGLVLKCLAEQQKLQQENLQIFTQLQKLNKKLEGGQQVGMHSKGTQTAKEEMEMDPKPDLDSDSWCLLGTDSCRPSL

BIKE = target: T3, BIKE (Homo sapiens, UniProt Q9NSY1)
T3 construct: gene BMP2K

[2] = read-out: Talazoparib (BMN 673) / %Ctrl @ 10000nM
[3] = read-out: Olaparib / %Ctrl @ 10000nM
[4] = read-out: Rucaparib / %Ctrl @ 10000nM, binding competition, % of control
[5] = read-out: Niraparib (MK-4827) / %Ctrl @ 10000nM

CAMK1G, sequence (Q96NX5 whole entry): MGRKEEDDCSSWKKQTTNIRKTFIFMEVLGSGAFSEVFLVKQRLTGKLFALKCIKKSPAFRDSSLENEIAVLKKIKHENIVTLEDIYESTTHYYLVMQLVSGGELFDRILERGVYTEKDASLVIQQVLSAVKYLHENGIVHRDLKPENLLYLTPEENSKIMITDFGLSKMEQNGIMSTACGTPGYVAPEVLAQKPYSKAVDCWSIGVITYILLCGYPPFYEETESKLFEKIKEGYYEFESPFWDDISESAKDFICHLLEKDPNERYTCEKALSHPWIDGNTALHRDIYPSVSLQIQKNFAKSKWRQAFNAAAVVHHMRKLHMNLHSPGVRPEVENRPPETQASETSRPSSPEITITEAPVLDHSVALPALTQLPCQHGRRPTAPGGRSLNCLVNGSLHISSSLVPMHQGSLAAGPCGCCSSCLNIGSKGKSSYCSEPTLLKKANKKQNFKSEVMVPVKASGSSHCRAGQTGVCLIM
PAK1, sequence (Q13153 whole entry): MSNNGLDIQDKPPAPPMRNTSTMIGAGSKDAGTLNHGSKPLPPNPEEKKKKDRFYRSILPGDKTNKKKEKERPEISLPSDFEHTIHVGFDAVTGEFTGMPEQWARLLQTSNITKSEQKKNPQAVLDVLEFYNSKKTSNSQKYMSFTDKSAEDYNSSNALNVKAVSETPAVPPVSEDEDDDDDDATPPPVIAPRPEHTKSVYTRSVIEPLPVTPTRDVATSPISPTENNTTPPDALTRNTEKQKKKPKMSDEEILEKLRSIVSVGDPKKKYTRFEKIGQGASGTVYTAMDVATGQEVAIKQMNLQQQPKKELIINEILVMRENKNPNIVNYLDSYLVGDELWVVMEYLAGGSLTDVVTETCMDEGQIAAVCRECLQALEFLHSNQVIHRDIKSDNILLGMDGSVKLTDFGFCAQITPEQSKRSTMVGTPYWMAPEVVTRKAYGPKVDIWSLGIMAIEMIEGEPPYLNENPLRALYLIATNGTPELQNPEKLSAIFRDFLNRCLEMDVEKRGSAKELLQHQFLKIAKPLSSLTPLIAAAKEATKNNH
T3 sequence (Q9NSY1 whole entry): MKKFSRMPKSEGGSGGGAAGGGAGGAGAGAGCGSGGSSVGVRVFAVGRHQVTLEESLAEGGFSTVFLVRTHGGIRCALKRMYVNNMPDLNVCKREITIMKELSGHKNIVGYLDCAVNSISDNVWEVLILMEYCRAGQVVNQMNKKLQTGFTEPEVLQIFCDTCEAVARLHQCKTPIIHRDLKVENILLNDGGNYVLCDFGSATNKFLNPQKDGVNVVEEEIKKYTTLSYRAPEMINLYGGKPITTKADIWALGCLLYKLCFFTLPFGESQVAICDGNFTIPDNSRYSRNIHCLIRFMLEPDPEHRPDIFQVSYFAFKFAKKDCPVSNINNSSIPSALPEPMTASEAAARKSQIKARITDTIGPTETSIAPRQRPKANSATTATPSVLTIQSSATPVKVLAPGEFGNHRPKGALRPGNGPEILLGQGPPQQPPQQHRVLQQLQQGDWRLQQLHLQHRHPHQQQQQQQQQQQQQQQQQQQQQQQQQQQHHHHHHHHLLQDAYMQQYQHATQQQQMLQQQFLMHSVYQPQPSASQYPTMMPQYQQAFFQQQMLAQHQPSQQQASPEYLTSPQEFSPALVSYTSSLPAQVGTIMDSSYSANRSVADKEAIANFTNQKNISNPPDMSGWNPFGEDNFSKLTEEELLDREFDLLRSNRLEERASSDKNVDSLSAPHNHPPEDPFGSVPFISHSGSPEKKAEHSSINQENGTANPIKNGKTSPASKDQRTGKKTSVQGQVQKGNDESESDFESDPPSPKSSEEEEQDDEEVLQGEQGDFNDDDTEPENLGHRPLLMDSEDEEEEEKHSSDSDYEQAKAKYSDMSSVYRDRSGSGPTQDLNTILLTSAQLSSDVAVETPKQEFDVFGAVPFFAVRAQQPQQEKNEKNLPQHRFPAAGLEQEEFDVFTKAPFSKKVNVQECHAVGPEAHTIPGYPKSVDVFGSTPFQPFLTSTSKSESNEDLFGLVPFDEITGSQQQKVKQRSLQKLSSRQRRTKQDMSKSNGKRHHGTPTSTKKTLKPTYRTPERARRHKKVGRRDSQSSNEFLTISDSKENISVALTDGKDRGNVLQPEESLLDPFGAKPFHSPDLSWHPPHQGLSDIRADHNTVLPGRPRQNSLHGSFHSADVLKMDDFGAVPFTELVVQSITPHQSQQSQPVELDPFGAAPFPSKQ

Cn1ncnc1[C@H]1c2n[nH]c(=O)c3cc(F)cc(c23)N[C@@H]1c1ccc(F)cc1 [Talazoparib]
percent of control binding at 10 µM [1, 2]: 100% | percent of control binding at 10 µM (PAK1; [2]): 93% | percent of control binding at 10 µM (CAMK1G; [2]): 100% | percent of control binding at 10 µM (NEK9; [2]): 99% | percent of control binding at 10 µM (BIKE; [2]): 93%

O=C(c1cc(Cc2n[nH]c(=O)c3ccccc23)ccc1F)N1CCN(C(=O)C2CC2)CC1 [Olaparib]
percent of control binding at 10 µM [1, 3]: 83% | percent of control binding at 10 µM (PAK1; [3]): 91% | percent of control binding at 10 µM (CAMK1G; [3]): 93% | percent of control binding at 10 µM (NEK9; [3]): 100% | percent of control binding at 10 µM (BIKE; [3]): 100%

CNCc1ccc(-c2[nH]c3cc(F)cc4c3c2CCNC4=O)cc1 [Rucaparib]
percent of control binding at 10 µM [1, 4]: 70% | percent of control binding at 10 µM (PAK1; [4]): 75% | percent of control binding at 10 µM (CAMK1G; [4]): 89% | percent of control binding at 10 µM (NEK9; [4]): 100% | percent of control binding at 10 µM (BIKE; [4]): 72%

NC(=O)c1cccc2cn(-c3ccc([C@@H]4CCCNC4)cc3)nc12 [Niraparib]
percent of control binding at 10 µM [1, 5]: 95% | percent of control binding at 10 µM (PAK1; [5]): 86% | percent of control binding at 10 µM (CAMK1G; [5]): 100% | percent of control binding at 10 µM (NEK9; [5]): 100% | percent of control binding at 10 µM (BIKE; [5]): 81%

— article PMC7026418, “The kinase polypharmacology landscape of clinical PARP inhibitors” (Scientific Reports, 2020)
